Here are results for two sequences from patent US20070128217A1 (priority 2003, published 2007).

Test [1] relates to control sera (pooled serum of ten healthy LUMC hospital workers; commercial negative donor pooled serum from the Dutch bloodbank). Format: binding, human. On the set-up: Binding of Control serum LUMC to linear peptides / Binding of Control serum Blood-bank to linear peptides / Binding of Control serum LUMC to looped peptides / Binding of Control Serum Blood-Bank to Looped peptides / Binding of Control serum LUMC to linear peptides of the protein M of SARS-CoV Urbani / Binding of Control serum Blood-bank to linear peptides of the protein M of SARS-CoV Urbani / Binding of Control serum LUMC to looped peptides of the protein M of SARS-CoV Urbani / Binding of Control Serum Blood-Bank to Looped peptides of the protein M of SARS-CoV Urbani: unit not given here.

The subject of test [2] is rabbit serum obtained by immunizing a rabbit with the SARS-CoV strain Frankfurt 1. Format: binding. On the set-up: Binding of a rabbit serum to linear peptides / Binding of a rabbit serum to looped peptides / Rabbit serum linear peptides / Rabbit serum looped peptides / Binding of a rabbit serum to linear peptides of protein N of SARS-CoV Urbani (Rabbit serum linear peptides) / Binding of a rabbit serum to looped/cyclic peptides of protein N of SARS-CoV Urbani (Rabbit serum looped peptides): unit not given here.

For test [3], the system named is antibodies in sera from SARS patients (sera 1a, 1b, 2, 6, 37, 62, London, SARS-yellow, SARS-green). Format: binding, human. On the set-up: Binding of serum 6 to linear peptides of protein X1 of SARS-CoV Urbani / Binding of serum 37 to linear peptides of protein X1 of SARS-CoV Urbani / Binding of serum 6 to looped/cyclic peptide (PEPSCAN-ELISA) / Binding of serum 37 to looped/cyclic peptide (PEPSCAN-ELISA) / Binding of serum 37 to looped/cyclic peptides of protein X1 of SARS-CoV Urbani / Binding of serum 6 to linear peptides of protein X2 / Binding of serum 37 to linear peptides of protein X2 / Binding of serum 37 to looped/cyclic peptides of protein X2 of SARS-CoV Urbani / Binding of serum 6 to linear peptides of protein M of SARS-CoV Urbani / Binding of serum 37 to linear peptides of protein M of SARS-CoV Urbani / Binding of serum 6 to looped/cyclic peptides of protein M of SARS-CoV Urbani / Binding of serum 37 to looped/cyclic peptides of protein M of SARS-CoV Urbani / Binding of serum 6 to linear peptides of protein X3 of SARS-CoV Urbani / Binding of serum 37 to linear peptides of protein X3 of SARS-CoV Urbani / Binding of serum 37 to looped/cyclic peptides of protein X3 of SARS-CoV Urbani / Binding of serum 6 to linear peptides of protein X4 of SARS-CoV Urbani / Binding of serum 37 to linear peptides of protein X4 of SARS-CoV Urbani / Binding of serum 37 to looped/cyclic peptides of protein X4 of SARS-CoV Urbani / Binding of serum 6 to linear peptides of protein X5 of SARS-CoV Urbani / Binding of serum 37 to linear peptides of protein X5 of SARS-CoV Urbani / Binding of serum 37 to looped/cyclic peptides of protein X5 of SARS-CoV Urbani / Binding of serum 6 to linear peptides of protein N of SARS-CoV Urbani / Binding of serum 37 to linear peptides of protein N of SARS-CoV Urbani / Binding of serum 6 to linear peptide (PEPSCAN-ELISA) / Binding of serum 1a to looped/cyclic peptides of protein N of SARS-CoV Urbani / Binding of serum 1b to looped/cyclic peptides of protein N of SARS-CoV Urbani / Binding of serum 2 to looped/cyclic peptides of protein N of SARS-CoV Urbani / Binding of serum 6 to looped/cyclic peptides of protein N of SARS-CoV Urbani / Binding of serum 37 to looped/cyclic peptides of protein N of SARS-CoV Urbani / Binding of serum 62 to looped/cyclic peptides of protein N of SARS-CoV Urbani / Binding of serum London to looped/cyclic peptides of protein N of SARS-CoV Urbani / Binding of serum SARS-green to looped/cyclic peptides of protein N of SARS-CoV Urbani: unit not given here.

Regarding RYRIGNYKLNTDHAG, in test [1], the “Binding of Control Serum Blood-Bank to Looped peptides of the protein M of SARS-CoV Urbani” value stood at 0.7, the “Binding of Control serum Blood-bank to linear peptides of the protein M of SARS-CoV Urbani” value was found to be 0.7, the “Binding of Control serum LUMC to linear peptides of the protein M of SARS-CoV Urbani” value was found to be 0.5 and the “Binding of Control serum LUMC to looped peptides of the protein M of SARS-CoV Urbani” value is recorded as 0.7. In test [2], the “Rabbit serum linear peptides” value was 0.1 and the “Rabbit serum looped peptides” value is given as 0.2. Moreover, in test [3], the “Binding of serum 1a to linear peptides of protein M of SARS-CoV Urbani” value is recorded as 0.7, the “Binding of serum 1a to looped/cyclic peptides of protein M of SARS-CoV Urbani” value came to 0.7, the “Binding of serum 1b to linear peptides of protein M of SARS-CoV Urbani” value turned out to be 0.5 and the “Binding of serum 1b to looped/cyclic peptides of protein M of SARS-CoV Urbani” value was 0.6. For the same sequence, in test [3], the “Binding of serum 2 to linear peptides of protein M of SARS-CoV Urbani” value stood at 0.4, the “Binding of serum 2 to looped/cyclic peptides of protein M of SARS-CoV Urbani” value amounted to 0.6, the “Binding of serum 6 to linear peptides of protein M of SARS-CoV Urbani” value is given as 0.2 and the “Binding of serum 6 to looped/cyclic peptides of protein M of SARS-CoV Urbani” value was determined as 0.9. Also, in test [3], the “Binding of serum 37 to linear peptides of protein M of SARS-CoV Urbani” value is 0.6, the “Binding of serum 37 to looped/cyclic peptides of protein M of SARS-CoV Urbani” value stood at 0.6, the “Binding of serum 62 to linear peptides of protein M of SARS-CoV Urbani” value worked out at 0.5 and the “Binding of serum 62 to looped/cyclic peptides of protein M of SARS-CoV Urbani” value was found to be 0.6. In test [3], the “Binding of serum London to linear peptides of protein M of SARS-CoV Urbani” value stood at 0.5, the “Binding of serum London to looped/cyclic peptides of protein M of SARS-CoV Urbani” value is 0.4, the “Binding of serum SARS-green to linear peptides of protein M of SARS-CoV Urbani” value is 0.4 and the “Binding of serum SARS-green to looped/cyclic peptides of protein M of SARS-CoV Urbani” value is reported as 0.3. Further, in test [3], the “Binding of serum SARS-yellow to linear peptides of protein M of SARS-CoV Urbani” value is recorded as 0.2 and the “Binding of serum SARS-yellow to looped/cyclic peptides of protein M of SARS-CoV Urbani” value was 0.8.

With SELVIGAVIIRGHLR, in test [1], the “Binding of Control Serum Blood-Bank to Looped peptides of the protein M of SARS-CoV Urbani” value turned out to be 0.6, the “Binding of Control serum Blood-bank to linear peptides of the protein M of SARS-CoV Urbani” value was 0.8, the “Binding of Control serum LUMC to linear peptides of the protein M of SARS-CoV Urbani” value stood at 0.9 and the “Binding of Control serum LUMC to looped peptides of the protein M of SARS-CoV Urbani” value is 0.6. Further, in test [2], the “Rabbit serum linear peptides” value is listed as 0.2 and the “Rabbit serum looped peptides” value is recorded as 0.2. Besides, in test [3], the “Binding of serum 1a to linear peptides of protein M of SARS-CoV Urbani” value worked out at 0.7, the “Binding of serum 1a to looped/cyclic peptides of protein M of SARS-CoV Urbani” value is 0.8, the “Binding of serum 1b to linear peptides of protein M of SARS-CoV Urbani” value amounted to 0.6 and the “Binding of serum 1b to looped/cyclic peptides of protein M of SARS-CoV Urbani” value came out at 0.7. Further, in test [3], the “Binding of serum 2 to linear peptides of protein M of SARS-CoV Urbani” value amounted to 0.6, the “Binding of serum 2 to looped/cyclic peptides of protein M of SARS-CoV Urbani” value stood at 0.8, the “Binding of serum 6 to linear peptides of protein M of SARS-CoV Urbani” value was found to be 0.7 and the “Binding of serum 6 to looped/cyclic peptides of protein M of SARS-CoV Urbani” value worked out at 0.6. Also, in test [3], the “Binding of serum 37 to linear peptides of protein M of SARS-CoV Urbani” value was 0.5, the “Binding of serum 37 to looped/cyclic peptides of protein M of SARS-CoV Urbani” value came out at 0.8, the “Binding of serum 62 to linear peptides of protein M of SARS-CoV Urbani” value amounted to 0.4 and the “Binding of serum 62 to looped/cyclic peptides of protein M of SARS-CoV Urbani” value was determined as 0.8. Further, in test [3], the “Binding of serum London to linear peptides of protein M of SARS-CoV Urbani” value is 0.4, the “Binding of serum London to looped/cyclic peptides of protein M of SARS-CoV Urbani” value worked out at 0.2, the “Binding of serum SARS-green to linear peptides of protein M of SARS-CoV Urbani” value came to 0.5 and the “Binding of serum SARS-green to looped/cyclic peptides of protein M of SARS-CoV Urbani” value turned out to be 0.3. For the same sequence, in test [3], the “Binding of serum SARS-yellow to linear peptides of protein M of SARS-CoV Urbani” value is recorded as 0.3 and the “Binding of serum SARS-yellow to looped/cyclic peptides of protein M of SARS-CoV Urbani” value is listed as 0.9.
